Test results: patent US20090029979A1, “5-HTX MODULATORS” (BIO-MEDISINSK INNOVASJON AS, priority 2005, published 2009)
pKd: −log10 of the molar value. Where two headings read alike, the source gives them in different places.

What was measured:
human 5-HT4(b) receptors [1] = biological target: T1, human 5-HT4(b) receptors (Homo sapiens, UniProt Q13639); assay: Adenylyl cyclase assay in membranes of HEK293 cells stably expressing human 5-HT4(b) receptors; assay type: biochemical; conditions: for Kb: where n = 2, ± half-range, read-out: Antagonist pKb value (pKb ± SEM) (converted)
T1 construct: expressed in transfected cells
Protocol: (§1) The development of HEK293 cell lines stably expressing human 5-HT4(b) receptors was described and published previously (Bach et al. 2001). Briefly, HEK293 cells (ATCC) were grown in Dulbecco's modified Eagle's medium with 10% fetal calf serum and penicillin (100 U/ml) and streptomycin (100 μg/ml). Cells were transfected with plasmid DNA (pcDNA3.1(−) containing human 5-HT4(b) receptor cDNA) using SuperFect Transfection Reagent (QIAGEN) according to the manufacturers protocol. Serial dilutions of transfected cells were plated in 96 well plates containing G418 (geneticin; Amersham) at 0.4 mg/ml, and isolated single colonies of cells transformed to the neomycin-resistant phenotype were expanded and tested for expression of serotonin receptors by measuring serotonin-stimulated adenylyl cyclase activity (Themmen et al. 1993). Transformed cells were always grown in the presence of G418 (0.4 mg/ml). For binding and adenylyl cyclase analysis, stable cell lines were grown and maintained in UltraCULTURE™ general purpose serum-free medium (BioWhittaker, Walkersville, Md., USA), supplemented with L-glutamine (2 mM), penicillin (100 U/ml) and streptomycin (100 μg/ml).
(§2) Membranes were prepared from stably transfected HEK293 cells cultured on 150-mm cell culture dishes and grown to 80% confluence in serum-free medium (UltraCULTURE™, BioWhittaker) with penicillin (10 U/ml) and 2 mM L-Glutamine (BioWhittaker). Cells were washed twice with 10 ml ice-cold HBSS, scraped with a rubber policeman in 10 ml ice-cold HBSS and collected by centrifugation at 800 g for 5 min at 4° C. The cell pellet was resuspended in 1 ml/dish ice-cold STE buffer (27% (w/v) sucrose, 50 mM Tris-HCl, pH 7.5 at 20° C., 5 mM EDTA) and homogenized with an Ultra-Turrax (IKA) homogenizer, using five 10 s bursts with 30 s cooling in ice-water between bursts. To remove nuclei, the homogenate was centrifuged at 300 g for 5 min at 4° C. and the supernatant was further centrifuged at 17000 g for 20 min at 4° C. and the supernatant removed. The crude membrane pellet was resuspended with ten strokes of tight fitting pestle B in a Dounce glass-glass homogenizer in 1 ml/dish ice-cold TE (50 mM Tris-HCl, pH 7.5 at RT, 5 mM EDTA). This procedure was repeated twice and the resuspended membranes were finally aliqouted and flash frozen in liquid nitrogen and stored at −70° C. until use.
Adenylyl cyclase activity was measured by determining conversion of [α-^32P]ATP to [^32P]cAMP in membranes prepared in STE by homogenization of cells grown and washed as described above in a Dounce glass-glass homogenizer by 10 strokes with the tight-fitting pestle. Membranes were kept on ice prior to assay. Adenylyl cyclase activities were measured on 10-μl aliquots in a final volume of 50 μl in the presence of 0.1 mM [α-^32P]ATP (1-2×10^6 cpm/assay), 4 mM MgCl2, 20 μM GTP, 1 mM EDTA, 1 mM [^3H]cAMP (ca. 10,000 cpm/assay), 1 μM 3-isobutyl-1-methyl xanthine (IBMX; Sigma), a nucleoside triphosphate regenerating system consisting of 20 mM creatine phosphate (Sigma), 0.2 mg/ml creatine phosphokinase (Sigma) and 40 U/ml myokinase (Sigma) and additives described in the text and figures. When forskolin (Calbiochem, La Jolla, Calif., USA) was used the concentration was 100 μM. Incubations were for 20 min at 32° C. Cyclic AMP formed was quantified by the double column chromatography system of Salomon et al. (1974) as modified by Bockaert et al. (1976).
(§3) Binding and adenylyl cyclase data were analyzed by non-linear regression using Microsoft Excel with the Solver add-in, using the below equations.
Activation of adenylyl cyclase—The data were fit to the equation
where a is basal adenylyl cyclase activity, b is maximal adenylyl cyclase activity stimulated by the agonist, c is EC50, and x is the concentration of agonist.

human 5-HT4(b) receptors [2] = biological target: T1, human 5-HT4(b) receptors; assay: Radioligand binding assay with [3H]GR113808, membranes of HEK293 cells stably expressing human 5-HT4(b) receptors; conditions: for Kd: [3H]GR113808, HEK293 membranes, human 5-HT4(b), where n = 2, ± half-range, read-out: Binding affinity (pKd value) (pKd ± SEM) (converted)
Protocol: as §1, §2
(§4) Binding assays were performed in 96-well, round-bottom microtiter plates with total reaction volumes of 50-200 μl, containing the indicated concentration of [^3H]GR113808 with or without competing unlabelled ligand in a binding buffer containing 50 mM Tris-HCl (pH 7.5 at RT), 1 mM EDTA, 5 mM EGTA, 2 mM MgCl2, 1 mM ascorbate, 0.1% BSA and 100 μM GTP. The plates were incubated at 23° C. for 60 min and harvested onto UniFilter™-96 GF/C™ (Packard Instrument Co., Meriden, Conn., USA), presoaked in 0.3% polyethyleneimine (Sigma), using a Packard FilterMate Universal Harvester with 96-well format, and washed 4-6 times with approximately 0.25 ml/well of ice-cold buffer, containing 50 mM Tris-HCl (pH 7.0 at RT) and 2 mM MgCl2. The filters were dried and counted at approximately 40% efficiency in a Top-Count liquid scintillation counter (Packard), using 20 μl per filter well of Micro-Scint liquid scintillation cocktail (Packard).
as §3
Competitive binding assays—The data were fit to the equation
where a is non-specific binding, b is total binding in the absence of competitor, c is IC50, and x is the concentration of competitor. Where relevant, relative binding data were obtained by recalculating the data using a=0 and b=100.
IC50 values from competitive binding assays were converted to Kb values by the method of Cheng and Prusoff (1973).

human 5-HT7(a) receptors = biological target: T2, human 5-HT7(a) receptors (Homo sapiens, UniProt P34969); assay: Radioligand binding assay with [3H]5-CT, membranes of HEK293 cells stably expressing human 5-HT7(a) receptors; conditions: 5-HT7 ligands, values are pKd ± half-range, read-out: Binding affinity (pKd value) (pKd ± SEM) (converted)
T2 construct: expressed in transfected cells
Protocol: as §4
The same materials and methods described in example 83 were used for the biological testing of hydrophilic 5-HT7 and 5-HT2A ligands. Membrane preparations of HEK293 cell lines stably expressing human 5-HT7(a) receptors (Krobert et al. 2001), or HEK293 cells transiently transfected with human 5-HT2A receptor were used in the binding assays. 5-Carboxamido [^3H]tryptamine trifluoroacetate ([^3H]5-CT) and [^3H]ketanserin were used as radioligands in binding assays testing 5-HT7 and 5-HT2A ligands, respectively.
[^3H]5-CT (91 Ci/mmol) was from Amersham (Buckinghamshire, England). [^3H]ketanserin (72.2 Ci/mmol) was from Perkin Elmer (Boston, Mass., USA).

T2 sequence (P34969 1-445 isoform P34969-2): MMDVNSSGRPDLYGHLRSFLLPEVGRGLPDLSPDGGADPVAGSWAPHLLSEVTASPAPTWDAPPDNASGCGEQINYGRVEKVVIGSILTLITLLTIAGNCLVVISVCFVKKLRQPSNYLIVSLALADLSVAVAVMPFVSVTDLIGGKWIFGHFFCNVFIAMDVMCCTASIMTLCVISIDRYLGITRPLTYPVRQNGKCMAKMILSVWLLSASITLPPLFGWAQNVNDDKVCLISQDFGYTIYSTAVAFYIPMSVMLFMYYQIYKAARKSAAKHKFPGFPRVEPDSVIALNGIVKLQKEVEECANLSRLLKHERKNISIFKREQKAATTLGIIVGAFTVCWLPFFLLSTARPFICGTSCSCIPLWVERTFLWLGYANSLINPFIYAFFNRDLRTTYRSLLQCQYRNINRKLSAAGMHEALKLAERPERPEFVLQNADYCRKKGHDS
T1 sequence (Q13639 whole entry): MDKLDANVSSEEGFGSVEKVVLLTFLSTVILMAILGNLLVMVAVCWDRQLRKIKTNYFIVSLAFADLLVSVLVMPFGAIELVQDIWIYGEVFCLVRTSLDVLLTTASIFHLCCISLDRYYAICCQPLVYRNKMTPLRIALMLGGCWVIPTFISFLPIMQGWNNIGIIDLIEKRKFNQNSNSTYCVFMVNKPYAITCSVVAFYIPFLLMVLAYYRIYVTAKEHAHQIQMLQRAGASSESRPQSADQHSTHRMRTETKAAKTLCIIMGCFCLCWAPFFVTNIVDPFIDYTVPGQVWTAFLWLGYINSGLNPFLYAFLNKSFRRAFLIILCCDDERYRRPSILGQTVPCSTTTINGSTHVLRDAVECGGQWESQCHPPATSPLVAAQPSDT

SMILES	Kb (human 5-HT4(b) receptors [1]) [nM]	Kd (human 5-HT4(b) receptors [2]) [nM]	Kd (human 5-HT7(a) receptors) [nM]	Agonist/Antagonist properties (human 5-HT4(b) receptors [1])	pKd (human 5-HT4(b) receptors [2])
O=C(CCCN1CCC(COC(=O)c2c[nH]c3ccccc23)CC1)OCC(Cl)(Cl)Cl [Example 12, 1H-indole-3-carboxylic acid 1-[3-(2,2,2-trichloroethyl-ethoxycarbonyl)-propyl]-piperidine-4-ylmethyl ester]	0.741	5.01	–	–	–
O=C(O)c1ccc(CN2CC=C(c3c[nH]c4ccccc34)CC2)cc1 [Example 69]	–	–	81300	–	–
COC(=O)c1ccc(CN2CCN(CCCCC34CCCc5cccc(c53)NC4=O)CC2)cc1 (stereo not shown) [Example 75]	–	–	15800	–	–
COC(=O)CCCCCN1CCC(CNC(=O)c2c3n(c4ccccc24)CCCO3)CC1 [Example 50]	0.759	–	–	Antagonist	9.87
CCOC(=O)CCCN1CCC(NC(=O)c2cccc3ccccc23)CC1 [Example 18]	3240	1580	–	Antagonist	–
O=C(O)CCCN1CCC(CNC(=O)c2c3n(c4ccccc24)CCCO3)CC1 [Example 52]	11	2.09	–	–	–
CCOC(=O)CCCN1CCC(COC(=O)c2cccc3ccccc23)CC1 [Example 25]	6.61	6.46	–	Antagonist	–
CC(C)n1nc(C(=O)NC2CCN(Cc3ccc(C(=O)OCC(Cl)(Cl)Cl)cc3)CC2)c2ccccc21 [Example 35]	724	1200	–	Partial agonist	–
CC(C)n1nc(C(=O)NC2CCN(Cc3ccccc3)CC2)c2ccccc21 [Example 29, N-(1-benzylpiperidin-4-yl)-1-isopropylindazole-3-carboxamide]	309	200	–	Partial agonist	–
CCOC(=O)CCCN1CCC(CNC(=O)c2cc(Cl)c(N)cc2OC)CC1 [Example 40]	66.1	20	–	Partial agonist	–
CCOC(=O)CCCN1CCC(CNC(=O)c2c[nH]c3ccccc23)CC1 [Example 60]	1620	110	–	Antagonist	–
CCOC(=O)CCCN1CC=C(c2c[nH]c3ccccc23)CC1 [Example 70]	–	–	661	–	–
O=C(O)c1ccc(CN2CCN(CCCCC34CCCc5cccc(c53)NC4=O)CC2)cc1 (stereo not shown) [Example 76]	–	–	135000	–	–
CCCCN1CCC(CNC(=O)c2c3n(c4ccccc24)CCCO3)CC1 [SB207266, reference compound]	–	–	–	Antagonist	–
CCOP(=O)(CCN1CCC(COC(=O)c2cccc3ccccc23)CC1)OCC [Example 27]	19.1	15.8	–	Weak partial	–
CC(C)n1nc(C(=O)NC2CCN(CCCC(=O)O)CC2)c2ccccc21 [Example 33]	1050	692	–	Partial agonist	–

SMILES	Kb (human 5-HT4(b) receptors [1]) [nM]	Kd (human 5-HT4(b) receptors [2]) [nM]	Kd (human 5-HT7(a) receptors) [nM]	Agonist/Antagonist properties (human 5-HT4(b) receptors [1])	pKd (human 5-HT4(b) receptors [2])
O=C(OCC1CCN(Cc2ccccc2)CC1)c1cccc2ccccc12 [Example 22, 1-[(1-benzylpiperidin-4-yl)carboxymethyl] napthalene]	11.2	42.7	–	Weak partial	–
COC(=O)c1ccc(CN2CC=C(c3c[nH]c4ccc(OC)cc34)CC2)cc1 [Example 9]	–	–	8510	–	–
O=C(O)CN1CCN(S(=O)(=O)CCCN2CCC(CNC(=O)c3cccc4c3OCCO4)CC2)CC1 [Example 67]	2.75	0.813	–	Antagonist	–
Cn1cc(C(=O)OCC2CCN(CCNS(C)(=O)=O)CC2)c2ccccc21 [GR113808, 1-methyl-1H-indole-3-carboxylic acid, [1-[2-[(methylsulfonyl)amino]ethyl]-4-piperidinyl]methyl ester, reference compound]	0.537	0.0813	–	Antagonist	–
O=C(O)CCCN1CCC(NC(=O)c2cccc3ccccc23)CC1 [Example 17]	38000	1000	–	–	–
O=C(O)CCCN1CCC(COC(=O)c2c[nH]c3ccccc23)CC1 [Example 13, 1H-indole-3-carboxylic acid 1-(3-carboxy-propyl)-piperidin-4-ylmethyl ester]	7.08	0.912	–	Antagonist	–
O=C(CCCN1CCC(CNC(=O)c2c3n(c4ccccc24)CCCO3)CC1)OCC(Cl)(Cl)Cl [Example 51]	0.537	–	–	–	9.58
O=C(O)CCCN1CCC(COC(=O)c2cccc3ccccc23)CC1 [Example 26]	69.2	12.9	–	Weak partial	–
COC(=O)c1ccc(CN2CC=C(c3c[nH]c4ccccc34)CC2)cc1 [Example 68]	–	–	11500	–	–
O=C(O)CCCN1CCC(CNC(=O)c2c[nH]c3ccccc23)CC1 [Example 62]	28200	3630	–	–	–
CC(C)n1nc(C(=O)NC2CCN(Cc3ccc(C(=O)O)cc3)CC2)c2ccccc21 [Example 36]	1150	2190	–	–	–
O=C(NCC1CCN(Cc2ccccc2)CC1)c1c2n(c3ccccc13)CCCO2 [Example 47]	0.427	–	–	Antagonist	9.80
CCOC(=O)CCCN1CCC(NC(=O)c2nn(C(C)C)c3ccccc23)CC1 [Example 31]	178	67.6	–	Partial agonist	–
CCOP(=O)(CCN1CCC(CNC(=O)c2c3n(c4ccccc24)CCCO3)CC1)OCC [Example 53]	2.51	1.32	–	Antagonist	–
CCOC(=O)CCCN1CCC(CNC(=O)c2c3n(c4ccccc24)CCCO3)CC1 [Example 49]	1.55	–	–	Antagonist	9.91
